Columns and labels:
p38 MAP Kinase = test: Beadlyte Cell Signaling Assay, phospho:total p38 MAP Kinase; assay type: cell-based, human; conditions: Beadlyte method, FIG. 4
Experimental: Human corneoscleral tissues, from donors aged 16-59 years were obtained from the Lions Eye Bank of Texas (Houston, Tex.). Corneal epithelial cells were grown from limbal explants. In brief, after carefully removing the central cornea, excess conjunctiva and iris and corneal endothelium, the limbal rim was cut into 12 equal pieces (about 2×2 mm size each). Two of these pieces were placed epithelial side up into each well of 6-well culture plates, and each explant was covered with a drop of fetal bovine serum (FBS) overnight. […]
(§1) The adherent cells were lysed in Beadlyte® Buffer B (included in the Beadlyte® Cell Signaling buffer kit, Upstate Biotechnology, Lake Placid, N.Y.) containing an EDTA-free protease inhibitor cocktail tablet (Roche Applied Science, Indianapolis, Ind.) for 15 minutes. The cell extracts were centrifuged at 12,000×g for 15 minutes at room temperature and the supernatants were stored at −80° C. until they were analyzed by Western blot analysis. The total protein concentrations of the cell extracts were determined using a Micro BCA protein assay kit (Pierce, Rockford, Ill.). […]
The beads were washed and mixed with biotinylated specific reporter antibodies for phospho-MAPK or total-MAPK, followed by streptavidin-phycoerythrin. The amount of total or phospho-MAPK was then quantified by the Luminex 100™ system (Luminex, Austin, Tex.). […]

[1] = test system: corneal epithelial cells isolated from the rabbit eye; test: Trans-epithelial electrical resistance (TEER) of layered air-lift corneal epithelial cultures under hypertonic fluid; assay type: cell-based; conditions: for TEER (as % of isotonic control) at 22 hours: 2 mM solute in hypertonic fluid (400 mOsmols/kg), 22 hours exposure, isotonic control 100%, hypertonic control 23.3; for % TEER relative to the isotonic control, response to concentration: Example 4, different concentrations, TEER measured from 0 to 24 hours, FIG. 6; for osmoprotective benefit (TEER relative to the hypertonic control), in words: Example 1, 2 mM, 400 mOsmols/kg, 22 hours
Excerpt: In this experiment, corneal epithelial cells were isolated from the rabbit eye and grown under conditions so that they differentiate into a layered “air-lift” culture that includes basal, wing, and squamous cells. As they grow and differentiate, these cultures developed tight junctions between cells that provide the basis for a trans-epithelial electrical resistance (TEER) across the cell layers between the apical and basal surfaces. The TEER value is a sensitive measure of cell growth, differentiation and health.
After 5 days in culture during which the layered structure forms, different culture wells were exposed to hypertonic fluid (400 mOsmols/kg) with or without addition of one of 6 candidate compatible solutes at a low concentration (2 mM). The TEER was then measured after 22 hours of exposure. The TEER value was expressed as a percentage of the TEER value obtained from a similar culture under isotonic (300 mOsmol/kg) conditions.
Example 1 is repeated except that different concentrations of each of the candidate materials are used, and the TEER is measured at various times from 0 to 24 hours.
As in Example 1, the TEER variable is represented as % TEER relative to the isotonic control. […]

phospho-JNK / total JNK = test: Beadlyte Cell Signaling Assay, phosphorylated:total JNK; assay type: cell-based, human; conditions: Beadlyte method, FIG. 3
Experimental: (§2) Human corneoscleral tissues, from donors aged 16-59 years were obtained from the Lions Eye Bank of Texas (Houston, Tex.). Corneal epithelial cells were grown from limbal explants. In brief, after carefully removing the central cornea, excess conjunctiva and iris and corneal endothelium, the limbal rim was cut into 12 equal pieces (about 2×2 mm size each). Two of these pieces were placed epithelial side up into each well of 6-well culture plates, and each explant was covered with a drop of fetal bovine serum (FBS) overnight. The explants were then cultured in SHEM medium, which was an 1:1 mixture of Dulbecco modified Eagle medium (DMEM) and Ham F-12 medium containing 5 ng/mL EGF, 5 μg/mL insulin, 5 μg/mL transferrin, 5 ng/mL sodium selenite, 0.5 μg/mL hydrocortisone, 30 ng/mL cholera toxin A, 0.5% DMSO, 50 μg/mL gentamicin, 1.25 μg/mL amphotericin B and 5% FBS, at 37° C. under 5% CO2 and 95% humidity. The medium was renewed every 2-3 days. Epithelial phenotype of these cultures was confirmed by characteristic morphology and immuno-fluorescent staining with cytokeratin antibodies (AE-1/AE-3).
(§3) A series of primary sub-confluent corneal epithelial cultures (grown for 12 to 14 days, about 4-5×10^5 cells/well) were washed three times with […] buffered saline (PBS) and switched to an Earle's Balanced Salt Solution (EBSS, 300 mOsmols/kg) for 24 hours before treatment. The corneal epithelial cells were cultured for 1 hour in an equal volume (2.0 mL/well) of EBSS media or 400 mOsmols/kg media by adding 53 mM NaCl or sucrose, with either L-carnitine inner salt, betaine hydrochloride, erythritol, or xylitol (all at a concentration of 2 mM) that were pre-added 60 minutes before adding NaCl or sucrose. Samples without these osmoprotectants were also prepared and tested.
as §1
(§4) The beads were washed and mixed with biotinylated specific reporter antibodies for phospho-MAPK or total-MAPK, followed by streptavidin-phycoerythrin. The amount of total or phospho-MAPK was then quantified by the Luminex 100™ system (Luminex, Austin, Tex.). Fifty events per bead were read, and the data output obtained from the Bio-Plex Manager software were exported to Microsoft Excel® for further analysis. […]

ERK MAP Kinase = test: Beadlyte Cell Signaling Assay, phospho:total ERK MAP Kinase; assay type: cell-based, human; conditions: Beadlyte method, FIG. 5
Experimental: as §2, §3, §1, §4

[2] = Component compatibility with stabilized chlorine dioxide preservative; assay type: physicochemical; conditions: composition including betaine and stabilized chlorine dioxide
Experimental: A composition including betaine and stabilized chlorine dioxide, as a preservative, was tested for component compatibility. […] Thus, betaine is not useful with is certain preservatives, such as stabilized chlorine dioxide. However, betaine may advantageously be employed as a compatible solute in ophthalmic compositions which use other preservative systems, or which are free of preservatives, for example, in single or unit-dose applications.

[3] = test system: phosphorylated c-jun N-terminal kinases (p-JNK1 and p-JNK2); test: Western blot analysis of phosphorylated JNK1 and JNK2 in primary corneal epithelial cultures under hyperosmolar media; assay type: cell-based, human; conditions: 2 mM; for levels of JNK1 and JNK2 in 300 mOsmols/kg cultures: FIG. 2; for JNK activation (levels of JNK1 and JNK2, Western blot intensity) compared to 400 mOsmols/kg media alone: pre-added 60 minutes, 1 hour, FIGS. 1 and 2
Experimental: as §2, §3
The adherent cells were lysed in Beadlyte® Buffer B (included in the Beadlyte® Cell Signaling buffer kit, Upstate Biotechnology, Lake Placid, N.Y.) containing an EDTA-free protease inhibitor cocktail tablet (Roche Applied Science, Indianapolis, Ind.) for 15 minutes. The cell extracts were centrifuged at 12,000×g for 15 minutes at room temperature and the supernatants were stored at −80° C. until they were analyzed by Western blot analysis. The total protein concentrations of the cell extracts were determined using a Micro BCA protein assay kit (Pierce, Rockford, Ill.).
The intensity of each of JNK1 and JNK2 was tested for each of these compositions using Western blot analysis with specific antibodies to each phosphorylated species.
The Western blot analysis was conducted as follows. The protein samples (50 μg per lane) were mixed with 6×SDS reducing sample buffer and boiled for 5 minutes before loading. Proteins were separated by SDS polyacrylamide gel electrophoresis (4-15% Tris-HCl, gradient gels from Bio-Rad, Hercules, Calif.), and transferred electronically to polyvinylidine difluoride (PVDF) membranes (Millipore, Bedford, Mass.). The membranes were blocked with 5% non-fat milk in TTBS (50 mM Tris, pH 7.5, 0.9% NaCl, and 0.1% Tween-20) for 1 hour at room temperature (RT), and then incubated 2 hours at RT with a 1:1000 dilution of rabbit antibody against phospho-p38 MAPK (Cell Signaling, Beverly, Mass.), 1:100 dilution of rabbit antibody against phospho-JNK, or 1:500 dilution of monoclonal antibody against phospho-p44/42 ERK (Santa Cruz Biotechnology, Santa Cruz, Calif.).
After three washings with TTBS, the membranes were incubated for 1 hour at RT with horseradish peroxidase-conjugated secondary antibody goat anti-rabbit IgG (1:2000 dilution, Cell Signaling, Beverly, Mass.), or goat anti-mouse IgG (1:5000 dilution, Pierce, Rockford, Ill.). After washing the membranes four times, the signals were detected with an ECL advance chemiluminescence reagent (Amersham, Piscataway, N.J.) and the images were acquired by a Kodak image station 2000R (Eastman Kodak, New Haven, Conn.). […]

| Structure (SMILES) | amount of phospho-total p38 relative to the hypertonic control (p38 MAP Kinase) | TEER (as % of isotonic control) at 22 hours [1] | % TEER relative to the isotonic control, response to concentration [1] | amount of phospho-total JNK relative to the hypertonic control (phospho-JNK / total JNK) | amount of ERK relative to the hypertonic control (ERK MAP Kinase) | component compatibility with stabilized chlorine dioxide (Purite7) preservative [2] | levels of JNK1 and JNK2 in 300 mOsmols/kg cultures [3] | JNK activation (levels of JNK1 and JNK2, Western blot intensity) compared to 400 mOsmols/kg media alone [3] | osmoprotective benefit (TEER relative to the hypertonic control), in words [1] |
| --- | --- | --- | --- | --- | --- | --- | --- | --- | --- |
| C[N+](C)(C)CC(=O)O [Betaine, betaine (trimethyl glycine)] | exception | 53.3% | dose-related response | reduced | did not | not fully compatible | less robust effect | definite decrease |  |
| C[N+](C)(C)C[C@H](O)CC(=O)[O-] [Carnitine] |  | 118.9% | dose-related response | reduced | did not |  | less robust effect | definite decrease | most benefit |
| OC[C@@H](O)[C@@H](O)CO [Erythritol] |  | 107.4% | dose-related response | reduced | reduced |  |  | no effect | best results among the polyols tested |
| O[C@H]1[C@H](O)[C@@H](O)[C@H](O)[C@@H](O)[C@H]1O [Myo-Inositol] |  | 74.8% |  |  |  |  |  |  | good results |
| NCCS(=O)(=O)O [Taurine] |  | 39.8% |  |  |  |  |  |  |  |
| OC[C@@H](O)[C@H](O)[C@@H](O)CO [Xylitol] |  | 94.1% |  | reduced | reduced |  |  | no effect | good results |

Reference: US20100184664A1, “OPHTHALMIC COMPOSITIONS USEFUL FOR IMPROVING VISUAL ACUITY” (Allergan, Inc., priority 2008, published 2010)
